# Experimental data from patent US6399590B2, “Phosphoglycolipid and methods for its use” (Corixa Corporation, priority 1998, dated 2002).
# Tested on: Adult mongrel dogs, left anterior descending coronary artery (LAD) occlusion/reperfusion
# Assay: Infarct size in the dog, 60 min LAD occlusion and 3 h reperfusion
# Format: in vivo
# Conditions: AG 30 mg/kg alone, 60 min before occlusion; mean ± SEM
# Experimental: Adult mongrel dogs of either sex, weighing 19.0-30.0 kg were fasted overnight, anaesthetized with intravenous sodium barbital (200 mg/kg) and sodium pentobarbital (15 mg/kg), and ventilated with room air supplemented with 100% oxygen at an end expiratory pressure of 5-7 cm H2O to prevent atelectasis. Arterial blood pH PO2 and PCO2 were monitored at selected intervals by an automatic blood gas system and maintained within a normal physiological range (pH 7.35-7.45, PO2 10.6-16.0 kPa, PCO2 3,3-4.7 kPa) by adjusting the respiratory rate and oxygen flow and by an infusion of 1.5% sodium bicarbonate when necessary. Body temperature was maintained at 38±1° C. by using a heating pad.
# A double pressure-transducer-tipped catheter was inserted into the aorta and left ventricle via the left carotid artery for measurements of aortic and left ventricular pressure. Left ventricular dP/dt was determined by electronic differentiation of the left ventricular pressure pulse.
# A left thoracotomy was performed at the fifth intercostal space. The lung was retracted, the pericardium incised, and the heart suspended in a cradle. A 10-15 mm segment of the left anterior descending coronary artery (LAD) was dissected from surrounding tissue. […]
# Regional myocardial blood flow was measured by the radioactive microsphere technique. […]
structure (smiles),measurement,value
"N=C(N)NN [AG, aminoguanidine, reference compound]",IS/AAR(%) (infarct size / area at risk),22.4 ± 2.8%
